Among the data in US20260184707A1, “PHARMACEUTICAL COMPOUNDS FOR THE TREATMENT OF COMPLEMENT MEDIATED DISORDERS” (ALEXION PHARMACEUTICALS, INC., priority 2022, published 2026) are IC50 values, retold here.

This assay addresses T1, Human complement C1s enzyme (Homo sapiens, UniProt P09871).
T1 construct: purified from human serum, Complement Technology, Inc; purchased Complement Technology, Inc; host or cells: human serum (plasma-derived native protein)
T1 sequence (P09871 438-688 limits assumed): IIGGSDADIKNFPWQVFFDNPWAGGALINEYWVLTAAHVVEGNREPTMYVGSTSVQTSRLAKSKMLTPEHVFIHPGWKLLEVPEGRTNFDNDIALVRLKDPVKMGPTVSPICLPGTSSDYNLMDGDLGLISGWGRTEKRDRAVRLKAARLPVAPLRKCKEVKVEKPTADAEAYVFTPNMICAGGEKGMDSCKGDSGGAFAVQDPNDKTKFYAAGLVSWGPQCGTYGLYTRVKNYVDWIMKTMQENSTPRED
T1 sequence (P09871 16-437 partner limits assumed): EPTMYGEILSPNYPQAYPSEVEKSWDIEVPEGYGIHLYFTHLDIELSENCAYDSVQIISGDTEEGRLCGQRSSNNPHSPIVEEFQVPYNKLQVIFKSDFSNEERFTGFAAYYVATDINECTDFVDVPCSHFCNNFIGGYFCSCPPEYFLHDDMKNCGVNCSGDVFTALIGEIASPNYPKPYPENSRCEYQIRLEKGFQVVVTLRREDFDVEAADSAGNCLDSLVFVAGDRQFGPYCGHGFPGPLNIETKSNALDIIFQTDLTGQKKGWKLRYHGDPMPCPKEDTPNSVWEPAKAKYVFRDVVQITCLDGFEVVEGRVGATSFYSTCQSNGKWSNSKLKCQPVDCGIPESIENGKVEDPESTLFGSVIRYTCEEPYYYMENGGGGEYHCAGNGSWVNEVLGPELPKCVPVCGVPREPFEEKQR
The experiment in a line: Human C1s enzyme assay. It is filed as biochemical. Conditions: human complement C1s enzyme 1.16 nM, substrate Z-L-Lys-SBzl, A405; read-out: IC50 (Stars). The procedure, abridged:
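Serum-purified human C1s (1.16 nM final) preincubated 5 min at room temperature with compound in 50 mM Tris, 1 M NaCl, pH 7.5. Z-L-Lys-SBzl and DTNB added at 100 μM each; A405 recorded every 30 s. IC50 from nonlinear regression of reaction rates versus compound concentration.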

As a reminder, the pIC50 is −log10 of the IC50, conventionally taken in molar units.

pIC50: −log10 of the molar value.

`O=C(Cn1c(-c2ccccc2)ncc(NCCCc2ccc3sc4ccccc4c3c2)c1=O)NCc1cc2cnccc2[nH]1` [Compound 64, N-((1H-pyrrolo[3,2-c]pyridin-2-yl)methyl)-2-(5-((3-(dibenzo [b,d]thiophen-2-yl)propyl)-amino)-6-oxo-2-phenylpyrimi-din-1(6H)-yl)acetamide]: the pIC50 was greater than 7.00.

For the compound `O=C(Cn1c(-c2ccccc2)ncc(N2CC3CCC2C3)c1=O)NCc1cc2cnccc2[nH]1` (stereo not drawn) [Compound 65, N-((1H-pyrrolo[3,2-c]pyridin-2-yl)methyl)-2-(5-(2-azabicyclo [2.2.1]heptan-2-yl)-6-oxo-2-phenylpyrimidin-1(6H)-yl)-acetamide], the pIC50 was 6.00 to 7.00.

For the compound `NS(=O)(=O)COc1ccc(-c2ncc(NCCCc3ccccc3)c(=O)n2CC(=O)NCc2cc3cnccc3[nH]2)cc1` [Compound 67, N-((1H-pyrrolo[3,2-c]pyridine-2-yl)methyl)-2-(6-oxo-5-((3-phenylpropyl)amino)-2-(4-(sulfamoylmethoxy)phenyl)pyrimidin-1(6H)-yl)acetamide], the pIC50 is greater than 7.00.

`CP(=O)(O)c1ccc(-c2ncc(NCCCc3ccccc3)c(=O)n2CC(=O)NCc2cc3cnccc3[nH]2)cc1` [Compound 68, (4-(1-(2-(((1H-pyrrolo[3,2-c]pyridine-2-yl)methyl)amino)-2-oxoethyl)-6-oxo-5-((3-phenylpropyl)amino)-1,6-dihydropyrimidin-2-yl)phenyl)(methyl)phosphinic acid]: the negative logarithm of the IC50 (pIC50) was greater than 7.00.

Consider `CS(=O)(=O)c1ccc(-c2ncc(NCCCc3ccccc3)c(=O)n2CC(=O)NCc2cc3cnccc3[nH]2)cc1` [Compound 69, N-((1H-pyrrolo[3,2-c]pyridine-2-yl)methyl)-2-(2-(4-(methylsulfonyl)phenyl)-6-oxo-5-((3-phenylpropyl)amino)pyrimidin-1(6H)-yl)acetamide], for which the pIC50 was greater than 7.00.

As to `O=C(Cn1c(-c2ccccc2)ncc(Br)c1=O)NCc1cc2cnccc2[nH]1` [Compound 71, N-((1H-pyrrolo[3,2-c]pyridin-2-yl)methyl)-2-(5-bromo-6-oxo-2-phenylpyrimidin-1(6H)-yl)acetamide], the pIC50 was 6.00 to 7.00.

With `O=C(Cn1c(-c2ccccc2)ncc(NC(=O)c2ccc(Oc3ccccc3Cl)cc2)c1=O)NCc1cc2cnccc2[nH]1` [Compound 72, N-(1-(2-(((1H-pyrrolo[3,2-c]pyridin-2-yl)methyl)amino)-2-oxoethyl)-6-oxo-2-phenyl-1,6-dihydropyrimidin-5-yl)-4-(2-chlorophenoxy)benzamide], the pIC50 is greater than 7.00.

Take `O=C(Cn1c(-c2ccccc2)ncc(NC(=O)c2ccc(C(=O)c3ccccc3)cc2)c1=O)NCc1cc2cnccc2[nH]1` [Compound 73, N-(1-(2-(((1H-pyrrolo[3,2-c]pyridin-2-yl)methyl)amino)-2-oxoethyl)-6-oxo-2-phenyl-1,6-dihydropyrimidin-5-yl)-4-benzoylbenzamide]: the pIC50 is greater than 7.00.

Take `O=C(Cn1c(-c2ccccc2)ncc(NC(=O)c2ccc(Oc3ccccc3)nc2)c1=O)NCc1cc2cnccc2[nH]1` [Compound 74, N-(1-(2-(((1H-pyrrolo[3,2-c]pyridin-2-yl)methyl)amino)-2-oxoethyl)-6-oxo-2-phenyl-1,6-dihydropyrimidin-5-yl)-6-phenoxynicotinamide]: the pIC50 is greater than 7.00.

Take `O=C(Cn1c(-c2ccccc2)ncc(NC(=O)c2ccc(-c3ccsc3)cc2)c1=O)NCc1cc2cnccc2[nH]1` [Compound 75, N-(1-(2-(((1H-pyrrolo[3,2-c]pyridin-2-yl)methyl)amino)-2-oxoethyl)-6-oxo-2-phenyl-1,6-dihydropyrimidin-5-yl)-4-(thiophen-3-yl)benzamide]: the pIC50 was greater than 7.00.

For `O=C(Cn1c(-c2ccccc2)ncc(NC(=O)NCC2CCCCC2)c1=O)NCc1cc2cnccc2[nH]1` [Compound 76, N-((1H-pyrrolo[3,2-c]pyridine-2-yl)methyl)-2-(5-(3-(cyclohexylmethyl)ureido)-6-oxo-2-phenylpyrimidin-1(6H)-yl)acetamide], the pIC50 was 6.00 to 7.00.

Take `O=C(Cn1c(-c2ccccc2)ncc(NCCCc2ccc(C3CC3)cc2)c1=O)NCc1cc2cnccc2[nH]1` [Compound 77, N-((1H-pyrrolo[3,2-c]pyridin-2-yl)methyl)-2-(5-((3-(4-cyclo-propylphenyl)propyl)amino)-6-oxo-2-phenylpyrimidin-1(6H)-yl)acetamide]: the pIC50 was greater than 7.00.

As for `O=C(Cn1c(-c2ccccc2)ncc(NC(=O)c2ccc3c(c2)-c2ccccc2C3(F)F)c1=O)NCc1cc2cnccc2[nH]1` [Compound 78, N-(1-(2-(((1H-pyrrolo[3,2-c]pyridin-2-yl)methyl)amino)-2-oxoethyl)-6-oxo-2-phenyl-1,6-dihydropyrimidin-5-yl)-9,9-difluoro-9H-fluorene-3-carbox-amide], the pIC50 is greater than 7.00.

For `O=C(Cn1c(-c2ccccc2)ncc(NC(=O)NCc2ccccc2)c1=O)NCc1cc2cnccc2[nH]1` [Compound 79, N-((1H-pyrrolo[3,2-c]pyridin-2-yl)methyl)-2-(5-(3-benzyl-ureido)-6-oxo-2-phenylpyr-imidin-1(6H)-yl)acetamide], the pIC50 was 6.00 to 7.00.

Consider `O=C(Cc1cc(NCCCc2ccccc2)ncc1-c1ccccc1)NCc1cc2cnccc2[nH]1` [Compound 80, N-((1H-pyrrolo[3,2-c]pyridine-2-yl)methyl)-2-(5-phenyl-2-((3-phenylpropyl)amino)pyridine-4-yl)acetamide], for which the pIC50 was less than 6.00.

Regarding `O=C(Cn1c(-c2ccccc2)ncc(-c2nc3ccc(Oc4ccccc4)cc3[nH]2)c1=O)NCc1cc2cnccc2[nH]1` [Compound 81, N-((1H-pyrrolo[3,2-c]pyridin-2-yl)methyl)-2-(6-oxo-5-(6-phenoxy-1H-benzo[d]imidazol-2-yl)-2-phenylpyrimidin-1(6H)-yl)acetamide], the negative logarithm of the IC50 (pIC50) is less than 6.00.

`O=C(Cn1c(-c2ccccc2)ncc(-c2nc3ccccc3[nH]2)c1=O)NCc1cc2cnccc2[nH]1` [Compound 82, 2-(5-(1H-benzo[d]pyridine-2-yl)-6-oxo-2-phenylpyrimidin-1(6H)-yl)-N-((1H-pyrrolo[3,2-c]pyridine-2-yl)methyl)acetamide]: the pIC50 is less than 6.00.

For the compound `O=C(Cn1c(-c2ccccc2)ncc(NC(=O)c2cc3ccc2CCc2ccc(cc2)CC3)c1=O)NCc1cc2cnccc2[nH]1` [Compound 83, N-(1-(2-(((1H-pyrrolo[3,2-c]pyridine-2-yl)methyl)amino)-2-oxoethyl)-6-oxo-2-phenyl-1,6-dihydropyrimidin-5-yl)-1,4(1,4)-dibenzenacyclohexaphane-1^2-carboxamide], the negative logarithm of the IC50 (pIC50) is less than 6.00.

For the compound `CS(=O)(=NC#N)c1ccc(CCCNc2cnc(-c3ccccc3)n(CC(=O)NCc3cc4cnccc4[nH]3)c2=O)cc1` (stereo not drawn) [Compound 84, N-((1H-pyrrolo[3,2-c]pyridine-2-yl)methyl)-2-(5-((3-(4-(N-cyano-S-methylsulfonimidoyl)phenyl)propyl)amino)-6-oxo-2-phenylpyrimidin-1(6H)-yl)acetamide], the pIC50 was greater than 7.00.

Consider `Cc1c(NCCCc2ccccc2)ccc(-c2ccccc2)c1CC(=O)NCc1cc2cnccc2[nH]1` [Compound 85, N-((1H-pyrrolo[3,2-c]pyridine-2-yl)methyl)-2-(3-methyl-4-((3-phenylpropyl)amino)-[1,1′-biphenyl]-2-yl)acetamide], for which the pIC50 was less than 6.00.

Regarding `O=C(Cn1c(-c2ccc(OC3COC3)cc2)ncc(NCCCc2ccccc2)c1=O)NCc1cc2cnccc2[nH]1` [Compound 86, N-((1H-pyrrolo[3,2-c]pyridine-2-yl)methyl)-2-(2-(4-(oxetan-3-yloxy)phenyl)-6-oxo-5-((3-phenylpropyl)amino)pyrimidin-1(6H)-yl)acetamide], the negative-log IC50 (pIC50) is greater than 7.00.

On to `CO[C@@H]1CO[C@H]2[C@@H]1OC[C@H]2Oc1ncc(NCCCc2ccccc2)c(=O)n1CC(=O)NCc1cc2cnccc2[nH]1` [Compound 87, N-((1H-pyrrolo[3,2-c]pyridine-2-yl)methyl)-2-(2-(((3R,3aR,6R,6aR)-6-methoxyhexahydrofuro[3,2-b]furan-3-yl)oxy)-6-oxo-5-((3-phenylpropyl)amino)pyrimidin-1(6H)-yl)acetamide], for which the pIC50 was 6.00 to 7.00.

With `O=C(Cn1c(-c2ccccc2)ncc(NCCCC(=O)c2ccc(Oc3ccccc3)cc2)c1=O)NCc1cc2cnccc2[nH]1` [Compound 88, N-((1H-pyrrolo[3,2-c]pyridin-2-yl)methyl)-2-(6-oxo-5-((4-oxo-4-(4-phenoxyphenyl)but-yl)amino)-2-phenylpyrimidin-1(6H)-yl)acetamide], the pIC50 is greater than 7.00.

With `CCOP(=O)(COc1ccc(-c2ncc(NCCCc3ccccc3)c(=O)n2CC(=O)NCc2cc3cnccc3[nH]2)cc1)OCC` [Compound 89, diethyl ((4-(1-(2-(((1H-pyrrolo[3,2-c]pyridine-2-yl)methyl)amino)-2-oxoethyl)-6-oxo-5-((3-phenylpropyl)amino)-1,6-dihydropyrimidin-2-yl)phenoxy)methyl)phosphonate], the pIC50 was greater than 7.00.
